Laboratory results from US20070128217A1 (priority 2003, published 2007).

Experiments:
[1] = test system: control sera (pooled serum of ten healthy LUMC hospital workers; commercial negative donor pooled serum from the Dutch bloodbank); type: binding, human; set-up: Binding of Control serum LUMC to linear peptides / Binding of Control serum Blood-bank to linear peptides / Binding of Control serum LUMC to looped peptides / Binding of Control Serum Blood-Bank to Looped peptides / Binding of Control serum LUMC to linear peptides of the protein M of SARS-CoV Urbani / Binding of Control serum Blood-bank to linear peptides of the protein M of SARS-CoV Urbani / Binding of Control serum LUMC to looped peptides of the protein M of SARS-CoV Urbani / Binding of Control Serum Blood-Bank to Looped peptides of the protein M of SARS-CoV Urbani: unit not given here
[2] = test system: recombinant human anti-SARS-CoV antibody 03-018; type: binding; set-up: Binding of antibody 03-018 to linear peptides of the N protein of SARS-CoV Urbani / Binding of antibody 03-018 to looped/cyclic peptides of the N protein of SARS-CoV Urbani: unit not given here
[3] = test system: rabbit serum obtained by immunizing a rabbit with the SARS-CoV strain Frankfurt 1; type: binding; set-up: Binding of a rabbit serum to linear peptides / Binding of a rabbit serum to looped peptides / Rabbit serum linear peptides / Rabbit serum looped peptides / Binding of a rabbit serum to linear peptides of protein N of SARS-CoV Urbani (Rabbit serum linear peptides) / Binding of a rabbit serum to looped/cyclic peptides of protein N of SARS-CoV Urbani (Rabbit serum looped peptides): unit not given here
[4] = test system: antibodies in sera from SARS patients (sera 1a, 1b, 2, 6, 37, 62, London, SARS-yellow, SARS-green); type: binding, human; set-up: Binding of serum 6 to linear peptides of protein X1 of SARS-CoV Urbani / Binding of serum 37 to linear peptides of protein X1 of SARS-CoV Urbani / Binding of serum 6 to looped/cyclic peptide (PEPSCAN-ELISA) / Binding of serum 37 to looped/cyclic peptide (PEPSCAN-ELISA) / Binding of serum 37 to looped/cyclic peptides of protein X1 of SARS-CoV Urbani / Binding of serum 6 to linear peptides of protein X2 / Binding of serum 37 to linear peptides of protein X2 / Binding of serum 37 to looped/cyclic peptides of protein X2 of SARS-CoV Urbani / Binding of serum 6 to linear peptides of protein M of SARS-CoV Urbani / Binding of serum 37 to linear peptides of protein M of SARS-CoV Urbani / Binding of serum 6 to looped/cyclic peptides of protein M of SARS-CoV Urbani / Binding of serum 37 to looped/cyclic peptides of protein M of SARS-CoV Urbani / Binding of serum 6 to linear peptides of protein X3 of SARS-CoV Urbani / Binding of serum 37 to linear peptides of protein X3 of SARS-CoV Urbani / Binding of serum 37 to looped/cyclic peptides of protein X3 of SARS-CoV Urbani / Binding of serum 6 to linear peptides of protein X4 of SARS-CoV Urbani / Binding of serum 37 to linear peptides of protein X4 of SARS-CoV Urbani / Binding of serum 37 to looped/cyclic peptides of protein X4 of SARS-CoV Urbani / Binding of serum 6 to linear peptides of protein X5 of SARS-CoV Urbani / Binding of serum 37 to linear peptides of protein X5 of SARS-CoV Urbani / Binding of serum 37 to looped/cyclic peptides of protein X5 of SARS-CoV Urbani / Binding of serum 6 to linear peptides of protein N of SARS-CoV Urbani / Binding of serum 37 to linear peptides of protein N of SARS-CoV Urbani / Binding of serum 6 to linear peptide (PEPSCAN-ELISA) / Binding of serum 1a to looped/cyclic peptides of protein N of SARS-CoV Urbani / Binding of serum 1b to looped/cyclic peptides of protein N of SARS-CoV Urbani / Binding of serum 2 to looped/cyclic peptides of protein N of SARS-CoV Urbani / Binding of serum 6 to looped/cyclic peptides of protein N of SARS-CoV Urbani / Binding of serum 37 to looped/cyclic peptides of protein N of SARS-CoV Urbani / Binding of serum 62 to looped/cyclic peptides of protein N of SARS-CoV Urbani / Binding of serum London to looped/cyclic peptides of protein N of SARS-CoV Urbani / Binding of serum SARS-green to looped/cyclic peptides of protein N of SARS-CoV Urbani: unit not given here

| Sequence | Binding of Control Serum Blood-Bank to Looped peptides [1] | Binding of Control serum Blood-bank to linear peptides [1] | Binding of Control serum LUMC to linear peptides [1] | Binding of Control serum LUMC to looped peptides [1] | Binding of antibody 03-018 to linear peptides of the N protein of SARS-CoV Urbani [2] | Binding of antibody 03-018 to looped/cyclic peptides of the N protein of SARS-CoV Urbani [2] | Binding of a rabbit serum to linear peptides of protein N of SARS-CoV Urbani (Rabbit serum linear peptides) [3] | Binding of a rabbit serum to looped/cyclic peptides of protein N of SARS-CoV Urbani (Rabbit serum looped peptides) [3] | Binding of serum 1a to linear peptides of protein N of SARS-CoV Urbani [4] | Binding of serum 1a to looped/cyclic peptides of protein N of SARS-CoV Urbani [4] | Binding of serum 1b to linear peptides of protein N of SARS-CoV Urbani [4] | Binding of serum 1b to looped/cyclic peptides of protein N of SARS-CoV Urbani [4] | Binding of serum 2 to linear peptides of protein N of SARS-CoV Urbani [4] | Binding of serum 2 to looped/cyclic peptides of protein N of SARS-CoV Urbani [4] | Binding of serum 6 to linear peptides of protein N of SARS-CoV Urbani [4] | Binding of serum 6 to looped/cyclic peptides of protein N of SARS-CoV Urbani [4] | Binding of serum 37 to linear peptides of protein N of SARS-CoV Urbani [4] | Binding of serum 37 to looped/cyclic peptides of protein N of SARS-CoV Urbani [4] | Binding of serum 62 to linear peptides of protein N of SARS-CoV Urbani [4] | Binding of serum 62 to looped/cyclic peptides of protein N of SARS-CoV Urbani [4] | also measured |
| --- | --- | --- | --- | --- | --- | --- | --- | --- | --- | --- | --- | --- | --- | --- | --- | --- | --- | --- | --- | --- | --- |
| GARPKQRRPQGLPNN | 0.5 | 0.7 | 0.7 | 0.6 | 0.1 | 0.2 | 0.1 | 0.2 | 0.2 | 0.3 | 0.1 | 0.1 | 0.2 | 0.4 | 0.1 | 0.3 | 0.4 | 0.4 | 0.6 | 0.5 | Binding of serum London to linear peptides of protein N of SARS-CoV Urbani [4]: 0.5; Binding of serum London to looped/cyclic peptides of protein N of SARS-CoV Urbani [4]: 0.4; Binding of serum SARS-green to linear peptides of protein N of SARS-CoV Urbani [4]: 0.3; Binding of serum SARS-green to looped/cyclic peptides of protein N of SARS-CoV Urbani [4]: 0.4; Binding of serum SARS-yellow to linear peptides of protein N of SARS-CoV Urbani [4]: 0.6; Binding of serum SARS-yellow to looped/cyclic peptides of protein N of SARS-CoV Urbani [4]: 0.2 |
| GGDGKMKELSPRWYF | 0.8 | 0.8 | 0.7 | 0.7 | 0.1 | 0.2 | 0.1 | 0.5 | 0.3 | 0.3 | 0.1 | 0.2 | 0.2 | 0.6 | 0.2 | 0.3 | 0.6 | 0.6 | 0.7 | 0.6 | Binding of serum London to linear peptides of protein N of SARS-CoV Urbani [4]: 0.4; Binding of serum London to looped/cyclic peptides of protein N of SARS-CoV Urbani [4]: 0.5; Binding of serum SARS-green to linear peptides of protein N of SARS-CoV Urbani [4]: 0.2; Binding of serum SARS-green to looped/cyclic peptides of protein N of SARS-CoV Urbani [4]: 0.5; Binding of serum SARS-yellow to linear peptides of protein N of SARS-CoV Urbani [4]: 0.7; Binding of serum SARS-yellow to looped/cyclic peptides of protein N of SARS-CoV Urbani [4]: 0.6 |
| GGPTDSTDNNQNGGR | 0.5 | 0.7 | 0.8 | 0.5 | 0.1 | 0.2 | 0.1 | 0.1 | 0.3 | 0.3 | 0.1 | 0.1 | 0.3 | 0.4 | 0.2 | 0.2 | 0.7 | 0.5 | 0.7 | 0.3 | Binding of serum London to linear peptides of protein N of SARS-CoV Urbani [4]: 0.6; Binding of serum London to looped/cyclic peptides of protein N of SARS-CoV Urbani [4]: 0.3; Binding of serum SARS-green to linear peptides of protein N of SARS-CoV Urbani [4]: 0.6; Binding of serum SARS-green to looped/cyclic peptides of protein N of SARS-CoV Urbani [4]: 0.2; Binding of serum SARS-yellow to linear peptides of protein N of SARS-CoV Urbani [4]: 0.6; Binding of serum SARS-yellow to looped/cyclic peptides of protein N of SARS-CoV Urbani [4]: 0.2 |
| GGRNGARPKQRRPQG | 0.5 | 0.7 | 0.6 | 0.5 | 0.2 | 0.2 | 0.2 | 0.8 | 0.3 | 0.2 | 0.2 | 0.1 | 0.3 | 0.2 | 0.2 | 0.2 | 0.7 | 0.4 | 0.8 | 0.3 | Binding of serum London to linear peptides of protein N of SARS-CoV Urbani [4]: 0.5; Binding of serum London to looped/cyclic peptides of protein N of SARS-CoV Urbani [4]: 0.2; Binding of serum SARS-green to linear peptides of protein N of SARS-CoV Urbani [4]: 2.6; Binding of serum SARS-green to looped/cyclic peptides of protein N of SARS-CoV Urbani [4]: 0.2; Binding of serum SARS-yellow to linear peptides of protein N of SARS-CoV Urbani [4]: 0.6; Binding of serum SARS-yellow to looped/cyclic peptides of protein N of SARS-CoV Urbani [4]: 0.2 |
